Marks after values point to notes of the source that are not given here.

Details of series [1]: method as in Rothenberg et al., 2019. Conditions: healthy volunteers; no exposure-related pattern; ref Rothenberg et al., 2019; cited from earlier work.
In series [2] the test system is BALB/c male mice. Nature of the series: Mouse tail flick latency. The class given is in vivo. The conditions noted are these: at clinical efficacious concentrations. On the technique in general: Hot-plate and tail-flick tests time the reaction to a heat stimulus.
The conditions of series [3]: trough plasma concentration just prior to patient-controlled subsequent dose; postoperative pain; ref Dahlstrom et al., 1982 (morphine), Lehmann et al., 1990 (tramadol); cited from earlier work.

Take `O=C(NS(=O)(=O)N1CCC1)c1cc(C2CC2)c(OCC23CC4CC(CC(C4)C2)C3)cc1F` [GDC-0276]: in series [1], the “Hyposmia (reduced sense of smell) in clinical study” value is on record as “a couple of incidents of hyposmia were reported”.

In the case of `CN1CC[C@]23c4c5ccc(O)c4O[C@H]2[C@@H](O)C=C[C@H]3[C@H]1C5` [Morphine], the “Percent of the maximum possible effect in mouse tail flick latency” value in series [2] was “approximately 50%”. The “Clinical MEC, mean (range)” value in series [3] is on record as 0.074 (0.032–0.116) ^b µM.

For `COc1cccc(C2(O)CCCCC2CN(C)C)c1` (centres unmarked) [Tramadol], the “Percent of the maximum possible effect in mouse tail flick latency” value in series [2] is “approximately 50%”. Besides, the “Clinical MEC, mean (range)” value in series [3] was 1.092 (0.077–3.744) ^c µM.

The values above are taken from paper PMC8740778, “Translational Pharmacokinetic–Pharmacodynamic Modeling of NaV1.7 Inhibitor MK-2075 to Inform Human Efficacious Dose” (Frontiers in Pharmacology, 2021).
